Experiment [1] has as its target T1, GDAP1ΔHD1 (Mus musculus, UniProt O88741).
T1 sequence (O88741 1-292): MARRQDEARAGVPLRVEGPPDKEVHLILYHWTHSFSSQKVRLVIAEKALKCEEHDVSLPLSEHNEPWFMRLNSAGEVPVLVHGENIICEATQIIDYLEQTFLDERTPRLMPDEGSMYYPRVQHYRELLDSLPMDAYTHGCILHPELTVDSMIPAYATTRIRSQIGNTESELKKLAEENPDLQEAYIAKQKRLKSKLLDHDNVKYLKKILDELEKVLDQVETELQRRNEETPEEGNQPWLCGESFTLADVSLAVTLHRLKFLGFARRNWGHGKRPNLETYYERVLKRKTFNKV
As to the kind of experiment: differential scanning fluorimetry. The format is binding. The note with it: 2 mM or 0.5 mM ethacrynic acid; H-site. On the technique in general: Differential scanning fluorimetry follows unfolding on heating by fluorescence.

The target of experiment [2] is T2, GDAP1ΔTM (Mus musculus, UniProt O88741).
T2 sequence (O88741 1-322): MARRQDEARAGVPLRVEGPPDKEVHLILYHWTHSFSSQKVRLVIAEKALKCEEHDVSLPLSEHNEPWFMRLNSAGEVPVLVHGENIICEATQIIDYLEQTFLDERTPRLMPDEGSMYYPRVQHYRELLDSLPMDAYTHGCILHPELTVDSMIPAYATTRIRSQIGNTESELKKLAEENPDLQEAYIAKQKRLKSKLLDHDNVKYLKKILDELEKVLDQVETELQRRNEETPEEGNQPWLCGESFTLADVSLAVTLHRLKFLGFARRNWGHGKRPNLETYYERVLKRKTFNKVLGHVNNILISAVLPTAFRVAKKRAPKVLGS
As to the kind of experiment: differential scanning fluorimetry. It counts as binding. The note with it: 2 mM or 0.5 mM ethacrynic acid; H-site.

The target in experiment [3] is T3, GDAP1ΔNT (Mus musculus, UniProt O88741).
T3 sequence (O88741 20-322): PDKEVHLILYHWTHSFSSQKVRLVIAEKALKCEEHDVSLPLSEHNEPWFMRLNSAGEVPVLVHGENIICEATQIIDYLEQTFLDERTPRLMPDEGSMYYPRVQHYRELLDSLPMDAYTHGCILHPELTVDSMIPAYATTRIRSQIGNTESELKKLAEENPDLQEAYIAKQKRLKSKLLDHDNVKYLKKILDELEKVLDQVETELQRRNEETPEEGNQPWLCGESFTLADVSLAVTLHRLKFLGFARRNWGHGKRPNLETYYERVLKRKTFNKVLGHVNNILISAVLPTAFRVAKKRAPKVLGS
In words: differential scanning fluorimetry. The format is binding. The settings on record: 2 mM or 0.5 mM ethacrynic acid; H-site.

Experiment [4] deals with GST Mu (Schistosoma japonicum, UniProt P08515). In words: differential scanning fluorimetry. It counts as binding. The note with it: 1 mM ethacrynic acid, without or with 1 mM GSH; H-site.
Experiment [5] concerns the target T4, GDAP1ΔNTΔHD1 (Mus musculus, UniProt O88741).
T4 sequence (O88741 20-292): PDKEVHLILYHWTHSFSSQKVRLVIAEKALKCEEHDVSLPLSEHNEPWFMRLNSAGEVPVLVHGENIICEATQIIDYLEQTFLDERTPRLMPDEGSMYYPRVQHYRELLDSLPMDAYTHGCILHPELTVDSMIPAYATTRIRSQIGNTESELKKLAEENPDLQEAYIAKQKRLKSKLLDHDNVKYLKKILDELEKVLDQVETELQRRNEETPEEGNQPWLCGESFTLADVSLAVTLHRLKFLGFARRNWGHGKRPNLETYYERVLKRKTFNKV
In words: differential scanning fluorimetry. The format is binding. The note with it: 2 mM or 0.5 mM ethacrynic acid; H-site.

The target of experiment [6] is GST Mu (Mu class glutathione S-transferase from Schistosoma japonicum) (Schistosoma japonicum). As to the kind of experiment: SEC. In general terms: Size exclusion chromatography separates by hydrodynamic size, large species first.

Consider 2 compounds from PMC9394736 (FASEB journal : official publication of the Federation of …, 2020).

Usually stoichiometry N stands for a count of units in the complex or per binding partner.

Sequence of GST Mu (P08515 whole entry): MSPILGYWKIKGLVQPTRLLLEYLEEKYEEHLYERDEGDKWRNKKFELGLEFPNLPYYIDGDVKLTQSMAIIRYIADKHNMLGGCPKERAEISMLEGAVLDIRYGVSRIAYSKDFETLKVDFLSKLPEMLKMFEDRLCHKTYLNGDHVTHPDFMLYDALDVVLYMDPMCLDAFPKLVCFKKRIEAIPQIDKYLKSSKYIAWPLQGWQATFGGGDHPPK
Sequence of GST Mu (Mu class glutathione S-transferase from Schistosoma japonicum) (enzyme) (P08515 2-218): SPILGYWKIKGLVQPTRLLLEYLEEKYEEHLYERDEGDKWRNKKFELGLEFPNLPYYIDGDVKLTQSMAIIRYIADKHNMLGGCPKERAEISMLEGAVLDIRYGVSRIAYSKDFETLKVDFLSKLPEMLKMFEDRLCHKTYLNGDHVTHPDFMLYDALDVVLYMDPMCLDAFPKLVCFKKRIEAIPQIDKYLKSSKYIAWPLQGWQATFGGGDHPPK

Turning to `C=C(CC)C(=O)c1ccc(OCC(=O)O)c(Cl)c1Cl` [ethacrynic acid], the melting temperature shift entry in experiment [1] is “GDAP1ΔHD1 retains binding but the magnitude of the shift was reduced”; in experiment [2], “GDAP1ΔTM, GDAP1ΔHD1, GDAP1ΔNT, GDAP1ΔNT ΔHD1 all retained ethacrynic acid binding”; in experiment [3], “GDAP1ΔTM, GDAP1ΔHD1, GDAP1ΔNT, GDAP1ΔNT ΔHD1 all retained ethacrynic acid binding”; in experiment [4], “GST Mu had an enhanced shift in the presence of both glutathione and EA”; in experiment [5], “GDAP1ΔTM, GDAP1ΔHD1, GDAP1ΔNT, GDAP1ΔNT ΔHD1 all retained ethacrynic acid binding”.

“GST Mu (Mu class glutathione S-transferase from Schistosoma japonicum) (enzyme)” returned a stoichiometry N in experiment [6] of 2.
